System: methicillin-resistant Staphylococcus aureus (MRSA)
Assay: In vitro bactericidal test on MRSA isolates (viable CFU/mL after 24 hours of treatment)
Details: average across three MRSA isolates
Protocol: Note that efficacy is reported in terms of the viable bacterial concentration (in CFU/mL) remaining after 24 hours of treatment with the drug product (in compliance with CLSI guidelines).
In this example, bacteria (MRSA isolates) are put onto fresh plates and allowed to grow for 30 hours. A suspension inoculum is made from the plates (e.g., a 1 McFarland solution in sterile water), from which the turbidity may be optically read. A standard inoculum may then be cultured in media and 100 μL of that solution combined with 100 μL of drug product and grown at various dilutions for 16-20 hrs. Duplicates may then be examined (e.g., following pelleting at 7,000 RPM for 15 min, resuspended in PBS and serial dilutions plated and grown for 24 hrs.). Duplicate plates at multiple dilutions may then be imaged and colonies counted.

SMILES: CCCCCCCCCCCCCCCCO [CA, cetyl alcohol]
- effect of increasing amounts of CA in the UCA and LARG composition: decrease in efficacy

From patent publication US12186293B2, “Therapeutic methods using decanoic acid and amino acids” (Wintermute Biomedical, Inc., priority 2018, dated 2025)
